{"source": "patent US20240293380A1", "about": "“PROTEASE INHIBITORS AND METHODS OF USE” (priority 2021, published 2024)", "data": [{"molecular_target": "SARS-CoV-2 3CLpro (Severe acute respiratory syndrome coronavirus 2 (2019-nCoV) (SARS-CoV-2), UniProt P0DTD1)", "assay_type": "biochemical", "units": {"IC50": "nM"}, "values": [{"smiles": "O=C(Cc1cncc2ccccc12)N(Cc1cccc(F)c1)c1ccc(-c2c[nH]cn2)cc1", "note": "[Compound 26]", "IC50": 351}, {"smiles": "O=C(Cc1cccnn1)N(Cc1cccc(Cl)c1)c1ccc(-c2cn[nH]c2)cc1", "note": "[Compound 6, N-[(3-chlorophenyl)methyl]-N-[4-(1H-pyrazol-4-yl)phenyl]-2-pyridazin-3-yl-acetamide]", "IC50": 5000}, {"smiles": "O=C(Cc1nnc2ccccn12)N(Cc1cccc(F)c1F)c1ccc(-c2c[nH]cn2)cc1", "note": "[Compound 24]", "IC50": 1300}, {"smiles": "O=C(Cc1cncc(Br)c1)N(Cc1cc(F)cc(F)c1)c1ccc(-c2c[nH]cn2)cc1", "note": "[Compound 65]", "IC50": 187}, {"smiles": "COc1cc(Cl)cc(CN(C(=O)Cc2cncc3ccccc23)c2ccc(-c3c[nH]cn3)cc2)c1", "note": "[Compound 19]", "IC50": 100}, {"smiles": "O=C(Cc1cncc2ccccc12)N(Cc1cc(F)ccc1F)c1ccc(-c2c[nH]cn2)cc1", "note": "[Compound 23]", "IC50": 159}, {"smiles": "O=C(Cc1cncc(C2CC2)c1)N(Cc1cc(F)cc(Cl)c1)c1ccc(-c2c[nH]cn2)cc1", "note": "[Compound 71]", "IC50": 115}, {"smiles": "O=C(Cc1cncc(C2CC2)c1)N(Cc1cc(F)cc(Cl)c1)c1ccc(C2CNC2)cc1", "note": "[Compound 79]", "IC50": 112}, {"smiles": "C[C@H](c1cc(F)cc(Cl)c1)N(C(=O)Cc1nnc2ccccn12)c1ccc(-c2c[nH]cn2)cc1", "note": "[Compound 13]", "IC50": 587}, {"smiles": "O=C(Cc1nnc2ccccn12)N(Cc1cc(F)cc(Cl)c1)c1ccc(-c2c[nH]cn2)cc1", "note": "[Compound 9, N-[(3-chloro-5-fluoro-phenyl)methyl]-N-[4-(1H-imidazol-4-yl)phenyl]-2-([1,2,4]triazolo[4,3-a]pyridin-3-yl)acetamide]", "IC50": 71}, {"smiles": "O=C(Cc1nncc2ccccc12)N(Cc1cc(F)cc(Cl)c1)c1ccc(C2CNC2)cc1", "note": "[Compound 82, N-(4-(azetidin-3-yl)phenyl)-N-(3-chloro-5-fluorobenzyl)-2-(phthalazin-1-yl)acetamide]", "IC50": 70}, {"smiles": "CC(C)CN(C(=O)Cc1nnc2ccccn12)c1ccc(-c2c[nH]cn2)cc1", "note": "[Compound 46]", "IC50": 8100}, {"smiles": "O=C(Cc1cncc2ccccc12)N(Cc1cncc(F)c1)c1ccc(C2CNC2)cc1", "note": "[Compound 60]", "IC50": 193}, {"smiles": "O=C(Cc1nnc2ccc(F)cn12)N(Cc1cccc(Cl)c1)c1ccc(-c2cn[nH]c2)cc1", "note": "[Compound 3, N-[(3-chlorophenyl)methyl]-2-(6-fluoro-[1,2,4]triazolo[4,3-a]pyridin-3-yl)-N-[4-(1H-pyrazol-4-yl)phenyl]acetamide]", "IC50": 3360}, {"smiles": "O=C1NC(CC(=O)N(Cc2cc(F)cc(Cl)c2)c2ccc(-c3c[nH]cn3)cc2)c2ccccc21", "note": "(centres unmarked) [Compound 50]", "IC50": 30800}, {"smiles": "O=C(Cc1nnc(-c2ccccc2)o1)N(Cc1cccc(Cl)c1)c1ccc(-c2cn[nH]c2)cc1", "note": "[Compound 7, N-[(3-chlorophenyl)methyl]-2-(5-phenyl-1,3,4-oxadiazol-2-yl)-N-[4-(1H-pyrazol-4-yl)phenyl]acetamide]", "SARS-CoV-2 IC50 (nM)": "Inactive"}, {"smiles": "O=C(Cc1cncc(F)c1)N(Cc1cncc(F)c1)c1ccc(-c2c[nH]cn2)cc1", "note": "[Compound 81]", "IC50": 1310}, {"smiles": "O=C(Cc1cncc(C2CC2)c1)N(Cc1cc(F)cc(F)c1)c1ccc(-c2c[nH]cn2)cc1", "note": "[Compound 67]", "IC50": 161}, {"smiles": "O=C(Cc1cnccc1Cl)N(Cc1cc(F)cc(Cl)c1)c1ccc(-c2c[nH]cn2)cc1", "note": "[Compound 76]", "IC50": 311}, {"smiles": "O=C(Cc1cncc2ccccc12)N(Cc1cncc(F)c1)c1ccc(C2=CCNC2)cc1", "note": "[Compound 68]", "IC50": 608}, {"smiles": "Cc1cncc(CC(=O)N(Cc2cc(F)cc(F)c2)c2ccc(-c3c[nH]cn3)cc2)c1", "note": "[Compound 66]", "IC50": 103}, {"smiles": "O=C(Cc1cncnc1)N(Cc1cc(F)cc(Cl)c1)c1ccc(-c2c[nH]cn2)cc1", "note": "[Compound 48]", "IC50": 542}, {"smiles": "COc1ccncc1CC(=O)N(Cc1cc(F)cc(Cl)c1)c1ccc(-c2c[nH]cn2)cc1", "note": "[Compound 78]", "IC50": 222}, {"smiles": "COc1ccc(Cl)cc1CN(C(=O)Cc1cncc2ccccc12)c1ccc(-c2c[nH]cn2)cc1", "note": "[Compound 18]", "IC50": 191}, {"smiles": "O=C1CNCCN1c1ccc(N(Cc2cc(F)cc(F)c2)C(=O)Cc2cncc3ccccc23)cc1", "note": "[Compound 35]", "IC50": 481}, {"smiles": "O=C(Cc1nnc(-c2ccccc2)s1)N(Cc1cccc(Cl)c1)c1ccc(-c2cn[nH]c2)cc1", "note": "[Compound 8, N-[(3-chlorophenyl)methyl]-2-(5-phenyl-1,3,4-thiadiazol-2-yl)-N-[4-(1H-pyrazol-4-yl)phenyl]acetamide]", "SARS-CoV-2 IC50 (nM)": "Inactive"}, {"smiles": "CC(C)(C)NC(=O)C(c1cc(F)cc(F)c1)N(C(=O)Cc1cncc2ccccc12)c1ccc(C2=CCNC2)cc1", "note": "(centres unmarked) [Compound 63]", "IC50": 1030}, {"smiles": "O=C(Cc1nnc2ccccn12)N(Cc1cc(F)cc(F)c1)c1ccc(-c2c[nH]cn2)cc1", "note": "[Compound 27]", "IC50": 209}, {"smiles": "O=C(Cc1cncc2ccccc12)N(Cc1cc(F)cc(Cl)c1)c1ccc(C2=CCNC2)cc1", "note": "[Compound 57]", "IC50": 81}, {"smiles": "O=C(Cc1cccnn1)N(Cc1cc(F)cc(F)c1)c1ccc(-c2c[nH]cn2)cc1", "note": "[Compound 31]", "IC50": 506}, {"smiles": "O=C(Cc1cccnc1)N(Cc1cccc(Cl)c1)c1ccc(-c2c[nH]cn2)cc1", "note": "[Compound 44]", "IC50": 414}, {"smiles": "O=C(Cc1cccnn1)N(Cc1cc(F)cc(Cl)c1)c1ccc(-c2c[nH]cn2)cc1", "note": "[Compound 52]", "IC50": 389}, {"smiles": "O=C(Cc1cncc2ccccc12)N(Cc1cncc(F)c1)c1ccc(-c2c[nH]cn2)cc1", "note": "[Compound 40]", "IC50": 53}, {"smiles": "Cc1ccc2nnc(CC(=O)N(Cc3cc(F)cc(Cl)c3)c3ccc(-c4c[nH]cn4)cc3)n2n1", "note": "[Compound 42]", "IC50": 250}, {"smiles": "NCc1ccc(N(Cc2cc(F)cc(F)c2)C(=O)Cc2cncc3ccccc23)cc1", "note": "[Compound 74]", "IC50": 76}, {"smiles": "O=C(Cc1cncc2ccccc12)N(Cc1cc(F)cc(F)c1)c1ccc(-c2c[nH]cn2)cc1", "note": "[Compound 28]", "IC50": 53}, {"smiles": "C[C@H](c1cc(F)cc(Cl)c1)N(C(=O)Cc1cncc2ccccc12)c1ccc(-c2c[nH]cn2)cc1", "note": "[Compound 14]", "IC50": 76}, {"smiles": "O=C(Cc1cncc2ccccc12)N(Cc1cncc(Cl)c1)c1ccc(-c2c[nH]cn2)cc1", "note": "[Compound 17]", "IC50": 101}, {"smiles": "O=C(Cc1cncc2ccccc12)N(Cc1cccc(Cl)c1F)c1ccc(-c2c[nH]cn2)cc1", "note": "[Compound 16]", "IC50": 370}, {"smiles": "O=C(Cc1cnc2ccccn12)N(Cc1cccc(Cl)c1)c1ccc(-c2cn[nH]c2)cc1", "note": "[Compound 4, N-[(3-chlorophenyl)methyl]-2-imidazo[1,2-a]pyridin-3-yl-N-[4-(1H-pyrazol-4-yl)phenyl]acetamide]", "IC50": 1150}, {"smiles": "O=C(Cc1cncc2ccccc12)N(Cc1cc(F)cc(F)c1)c1ccc(C2CNC2)cc1", "note": "[Compound 62]", "IC50": 69}, {"smiles": "N#Cc1ccc(N(Cc2cc(F)cc(F)c2)C(=O)Cc2cncc3ccccc23)cc1", "note": "[Compound 38]", "IC50": 1250}, {"smiles": "CC(c1cc(F)cc(F)c1)N(C(=O)Cc1cncc2ccccc12)c1ccc(-c2c[nH]cn2)cc1", "note": "(centres unmarked) [Compound 30]", "IC50": 114}, {"smiles": "Cc1cncc(CC(=O)N(Cc2cc(F)cc(Cl)c2)c2ccc(C3CNC3)cc2)c1", "note": "[Compound 80]", "IC50": 110}, {"smiles": "O=C(Cc1cncc2ccccc12)N(Cc1ccc(Cl)c(F)c1)c1ccc(-c2c[nH]cn2)cc1", "note": "[Compound 58]", "IC50": 1090}, {"smiles": "O=C(Cc1nnc2ccc(F)cn12)N(Cc1cc(F)cc(Cl)c1)c1ccc(-c2c[nH]cn2)cc1", "note": "[Compound 10, N-[(3-chloro-5-fluoro-phenyl)methyl]-2-(6-fluoro-[1,2,4]triazolo[4,3-a]pyridin-3-yl)-N-[4-(1H-imidazol-4-yl)phenyl]acetamide]", "IC50": 77}, {"smiles": "O=C(Cc1nnc2ccccn12)N(Cc1cccc(F)c1)c1ccc(-c2c[nH]cn2)cc1", "note": "[Compound 47]", "IC50": 621}, {"smiles": "O=C(Cc1cncc(F)c1)N(Cc1cncc(F)c1)c1ccc(C2CNC2)cc1", "note": "[Compound 83]", "IC50": 5220}, {"smiles": "O=C(Cc1cncc2ccccc12)N(Cc1cccc(Cl)c1)c1ccc(-c2cn[nH]c2)cc1", "note": "[Compound 2, N-[(3-chlorophenyl)methyl]-2-(4-isoquinolyl)-N-[4-(1H-pyrazol-4-yl)phenyl]acetamide]", "IC50": 30}, {"smiles": "O=C(Cc1cncc2ccccc12)N(Cc1cc(F)cc(Cl)c1)c1ccc(C2CNC2)cc1", "note": "[Compound 72]", "IC50": 56}, {"smiles": "O=C(Cc1cncc2ccccc12)N(Cc1cc(F)cc(OC(F)(F)F)c1)c1ccc(-c2c[nH]cn2)cc1", "note": "[Compound 61]", "IC50": 113}, {"smiles": "NC(=O)c1ccc(N(Cc2cc(F)cc(F)c2)C(=O)Cc2cncc3ccccc23)cc1", "note": "[Compound 51]", "IC50": 100}, {"smiles": "CC(C)(C)CN(C(=O)Cc1cncc2ccccc12)c1ccc(-c2c[nH]cn2)cc1", "note": "[Compound 45]", "IC50": 356}, {"smiles": "O=C(Cc1cnc2ccccn12)N(Cc1cc(F)cc(Cl)c1)c1ccc(-c2c[nH]cn2)cc1", "note": "[Compound 11, N-[(3-chloro-5-fluoro-phenyl)methyl]-2-imidazo[1,2-a]pyridin-3-yl-N-[4-(1H-imidazol-4-yl)phenyl]acetamide]", "IC50": 65}, {"smiles": "O=C(Cc1noc2ccccc12)N(Cc1cc(F)cc(Cl)c1)c1ccc(-c2c[nH]cn2)cc1", "note": "[Compound 49]", "IC50": 839}, {"smiles": "COc1ccc(F)cc1CN(C(=O)Cc1cncc2ccccc12)c1ccc(-c2c[nH]cn2)cc1", "note": "[Compound 53]", "IC50": 179}, {"smiles": "O=C1Nc2ccccc2C1CC(=O)N(Cc1cc(F)cc(Cl)c1)c1ccc(-c2c[nH]cn2)cc1", "note": "(centres unmarked) [Compound 59]", "IC50": 6240}, {"smiles": "O=C(Cc1cnccn1)N(Cc1cc(F)cc(Cl)c1)c1ccc(-c2c[nH]cn2)cc1", "note": "[Compound 55]", "IC50": 2040}, {"smiles": "CC(C)(C)NC(=O)C(c1cc(F)cc(F)c1)N(C(=O)Cc1cncc2ccccc12)c1ccc(-c2c[nH]cn2)cc1", "note": "(centres unmarked) [Compound 64]", "IC50": 231}, {"smiles": "Cc1ccc2nnc(CC(=O)N(Cc3cc(F)cc(F)c3)c3ccc(-c4c[nH]cn4)cc3)n2n1", "note": "[Compound 41]", "IC50": 604}, {"smiles": "O=C1CN(c2ccc(N(Cc3cc(F)cc(F)c3)C(=O)Cc3cncc4ccccc34)cc2)CCN1", "note": "[Compound 36]", "IC50": 370}, {"smiles": "O=C(Cc1nnc2ccccn12)N(Cc1cc(F)ccc1F)c1ccc(-c2c[nH]cn2)cc1", "note": "[Compound 22]", "IC50": 786}, {"smiles": "O=C(Cc1cnccc1C(F)(F)F)N(Cc1cc(F)cc(Cl)c1)c1ccc(-c2c[nH]cn2)cc1", "note": "[Compound 75]", "IC50": 1000}, {"smiles": "COc1cc(F)cc(CN(C(=O)Cc2cncc3ccccc23)c2ccc(-c3c[nH]cn3)cc2)c1", "note": "[Compound 54]", "IC50": 90}, {"smiles": "O=C(Cc1cccnc1)N(Cc1cc(F)cc(Cl)c1)c1ccc(-c2c[nH]cn2)cc1", "note": "[Compound 43]", "IC50": 188}]}]}
